Experimental data taken from patent US20090264375A1, “INTRAOCULAR IRRIGATING SOLUTIONS AND METHODS FOR TREATING CORNEAL EDEMA” (ALCON RESEARCH, LTD., priority 2007, published 2009).

Assay: GSSG content after autoclaving at F0=8
Type: physicochemical
Conditions: 0.4% histidine in reconstituted BSS PLUS, autoclaved
Excerpt: The composition of reconstituted BSS PLUS® Sterile Intraocular Irrigating Solution is shown below in Table 1. The reconstituted product was used as a control solution. A sample of the reconstituted product was then spiked with 0.4% histidine to form the experimental solution. The control solution and the experimental solution were then each divided into two replicates each. The pH of one control and one experimental replicate was then adjusted to pH 6.8 and the pH of the other replicate was adjusted to pH 7.4. Both sets of the solutions were then autoclaved at F0=8. After autoclaving, GSSG contents in all the solutions were determined and the results are tabulated in Table 2 as percent GSSG remaining of the label claim in BSS PLUS® Sterile Intraocular Irrigating Solution.
All of the above solutions were autoclaved in the same cycle. However, in this particular experiment, the sterilizer used was not capable of finely regulating F0 and thus significant degradation of GSSG occurred.

- Effect on GSSG stability in solution: stabilizes GSSG in solution
SMILES: N[C@@H](Cc1c[nH]cn1)C(=O)O [histidine]
